Laboratory results taken from patent publication US6555134B1, “Synergistic mixtures of garlic and lycopene for preventing LDL oxidation” (Lycored Natural Products Industries Ltd., priority 1998, dated 2003).
Where two headings read alike, the source gives them in different places. Marks after values point to notes of the source that are not given here.

Key:
[1] = test system: LDL; experiment: copper ions-induced LDL oxidation (TBARS, lipids); type: biochemical, human; details: Experiment 1; lycopene 5 μg/ml
Protocol: LDL was separated from human plasma by discontinuous density gradient ultracentrifugation and dialyzed against saline: EDTA (1 mM). Before oxidation LDL was diluted in PBS to 100 ug protein/ml, and dialyzed overnight against PBS at 4° C. LDL was oxidized by a metal ion dependent mechanism, by incubation for 24 hours at 37° C. with 5 uM CuSO4 freshly prepared as well as by determination of the thiobarbituric acid reactive substance (TBARS). Lycopene, as well as tomato oleoresin containing 5% lycopene, were dissolved in tetrahydrofuran (THF), 0.5 mg/ml stock solution for pure lycopene, and 10 mg/ml stock solution for the oleoresin. Garlic powder was extracted with water, dried, and resolubilized in water at a concentration of 0.25 mg of allicin equivalentsml for a stock solution. The synergistic effects of a combination of garlic and lycopene on copper ions-induced LDL oxidation was studied. Details are shown in Table 1, affording the individual components of the Abbott Equation used to calculate synergism as follows: [formula] where A=Percent Control of garlic alone B=Percent Control of Lycopene alone where IF=Actual control in Percent IE=Expected control in Percent Following the method of Experiment 1, the synergistic effect of a combination of garlic and lycopene as in Experiment 1; but using tomato oleoresin was run.

[2] = test system: blood lymphocytes; details: NO2 radical damage; cited from earlier work
[3] = test system: Cultured rat hepatocytes; details: cited from earlier work
[4] = molecular target: T1, fatty acid synthetase (Rattus norvegicus, UniProt P12785); details: at very high concentration; cited from earlier work
T1 construct: Cultured rat hepatocytes; host or cells: primary rat hepatocyte cultures
T1 sequence (P12785 whole entry): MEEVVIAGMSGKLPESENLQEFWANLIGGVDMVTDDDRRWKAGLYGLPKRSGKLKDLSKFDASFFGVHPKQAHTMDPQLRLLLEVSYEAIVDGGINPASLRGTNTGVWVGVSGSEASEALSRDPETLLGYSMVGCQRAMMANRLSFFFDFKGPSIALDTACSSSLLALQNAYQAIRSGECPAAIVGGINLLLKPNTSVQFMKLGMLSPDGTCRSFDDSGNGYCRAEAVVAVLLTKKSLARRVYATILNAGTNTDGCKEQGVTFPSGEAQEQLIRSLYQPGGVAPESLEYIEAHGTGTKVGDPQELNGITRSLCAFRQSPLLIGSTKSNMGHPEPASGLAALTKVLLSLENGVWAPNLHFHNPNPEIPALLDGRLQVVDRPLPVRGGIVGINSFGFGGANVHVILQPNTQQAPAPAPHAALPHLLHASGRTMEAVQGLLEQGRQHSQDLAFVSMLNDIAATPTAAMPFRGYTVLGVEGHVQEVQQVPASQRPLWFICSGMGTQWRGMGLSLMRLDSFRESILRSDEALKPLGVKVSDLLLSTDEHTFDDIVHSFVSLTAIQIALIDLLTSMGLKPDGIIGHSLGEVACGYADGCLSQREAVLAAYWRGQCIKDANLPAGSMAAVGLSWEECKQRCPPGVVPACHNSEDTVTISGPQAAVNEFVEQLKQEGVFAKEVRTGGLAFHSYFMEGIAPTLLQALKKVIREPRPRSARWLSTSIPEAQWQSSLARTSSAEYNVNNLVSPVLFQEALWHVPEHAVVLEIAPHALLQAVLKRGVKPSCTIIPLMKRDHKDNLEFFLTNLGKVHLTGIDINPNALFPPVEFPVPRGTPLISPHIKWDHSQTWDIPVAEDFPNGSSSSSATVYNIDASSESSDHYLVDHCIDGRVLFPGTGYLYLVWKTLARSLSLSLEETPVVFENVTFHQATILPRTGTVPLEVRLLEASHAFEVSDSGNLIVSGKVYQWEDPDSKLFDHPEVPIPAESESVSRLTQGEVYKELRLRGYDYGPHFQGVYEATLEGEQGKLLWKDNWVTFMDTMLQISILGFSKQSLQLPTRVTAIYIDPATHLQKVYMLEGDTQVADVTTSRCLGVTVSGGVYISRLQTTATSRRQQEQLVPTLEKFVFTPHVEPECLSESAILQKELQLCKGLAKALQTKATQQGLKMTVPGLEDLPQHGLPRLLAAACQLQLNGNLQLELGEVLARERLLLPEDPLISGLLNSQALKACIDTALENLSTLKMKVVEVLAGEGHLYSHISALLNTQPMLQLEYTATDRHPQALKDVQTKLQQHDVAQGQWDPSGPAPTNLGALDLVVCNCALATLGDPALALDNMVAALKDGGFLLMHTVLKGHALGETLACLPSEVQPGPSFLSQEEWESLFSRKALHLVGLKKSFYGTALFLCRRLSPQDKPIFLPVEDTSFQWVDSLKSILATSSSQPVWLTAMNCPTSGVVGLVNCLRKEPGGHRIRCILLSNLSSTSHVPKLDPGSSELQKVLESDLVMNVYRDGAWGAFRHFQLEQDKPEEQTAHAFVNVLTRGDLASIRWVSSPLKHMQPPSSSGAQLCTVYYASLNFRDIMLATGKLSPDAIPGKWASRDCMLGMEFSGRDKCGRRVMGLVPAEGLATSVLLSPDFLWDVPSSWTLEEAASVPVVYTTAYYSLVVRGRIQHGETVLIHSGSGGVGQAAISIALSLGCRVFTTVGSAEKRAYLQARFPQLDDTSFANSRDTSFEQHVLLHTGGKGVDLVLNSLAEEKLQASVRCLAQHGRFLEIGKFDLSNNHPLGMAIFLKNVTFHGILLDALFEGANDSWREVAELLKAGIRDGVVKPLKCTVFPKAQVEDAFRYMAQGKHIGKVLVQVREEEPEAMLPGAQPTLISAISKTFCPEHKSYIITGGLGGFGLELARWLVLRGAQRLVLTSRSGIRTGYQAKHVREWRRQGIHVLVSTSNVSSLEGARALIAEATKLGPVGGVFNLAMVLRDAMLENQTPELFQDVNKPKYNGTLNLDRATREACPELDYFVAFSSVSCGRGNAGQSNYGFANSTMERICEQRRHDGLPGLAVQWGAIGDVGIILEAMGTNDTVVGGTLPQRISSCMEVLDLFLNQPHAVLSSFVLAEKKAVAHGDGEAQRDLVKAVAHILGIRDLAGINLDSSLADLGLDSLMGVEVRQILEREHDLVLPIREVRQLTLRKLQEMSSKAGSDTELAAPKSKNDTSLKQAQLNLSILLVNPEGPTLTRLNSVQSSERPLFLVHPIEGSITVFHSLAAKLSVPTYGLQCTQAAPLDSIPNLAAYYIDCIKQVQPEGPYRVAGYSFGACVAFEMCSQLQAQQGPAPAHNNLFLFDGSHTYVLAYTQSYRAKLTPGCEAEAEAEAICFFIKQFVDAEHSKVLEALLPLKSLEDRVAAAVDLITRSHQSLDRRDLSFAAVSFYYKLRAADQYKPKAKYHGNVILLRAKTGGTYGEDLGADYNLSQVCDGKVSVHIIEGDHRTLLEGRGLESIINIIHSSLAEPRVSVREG

For `CC(C)=CCC/C(C)=C/C=C/C(C)=C/C=C/C(C)=C/C=C/C=C(C)/C=C/C=C(C)/C=C/C=C(\C)CCC=C(C)C` [Lycopene], the “B = Percent Control of Lycopene alone” value [1] is given as 18^b Percent and the “antioxidant effectiveness relative to β-carotene” value [2] is given as “at least twice as effective”.

In the case of `CC[C@H](C)C(=O)O[C@H]1CCC=C2C=C[C@H](C)[C@H](CC[C@@H]3C[C@@H](O)CC(=O)O3)[C@H]21` [Mevastatin], the “inhibition of cholesterol biosynthesis” value ([3]; 24 h incubation, radiolabeled acetate) is listed as 90%.

For `C=CCS[S+]([O-])CC=C` (centres unmarked) [allicin], the “inhibition of cholesterol biosynthesis” value ([3]; concentration corresponding to its content in the extracts, before or after incubation with alliinase) is listed as “does not exert any inhibition” and the “inhibition of fatty acid synthetase” value [4] is listed as “inhibited”.
